In patent US20060281071A1, “Stearoyl-CoA desaturase assay” (priority 2005, published 2006):

Key:
[1] = target: T1, mSCD3 (Mus musculus, UniProt Q99PL7, V119A); experiment: Conversion of saturated fatty acids to Δ9 monounsaturated fatty acids in ole1 yeast L8-14C expressing mSCD3 (GLC); assay type: cell-based; parameters: Cloning of the full-length human and mouse SCD cDNAs: The full coding region of human SCDs; expressed in transfected cells; host or cells: Saccharomyces cerevisiae L8-14C (ole1 disruptant), vector p426GPD; settings: for conversion of exogenous saturated fatty acid to Δ9 monounsaturated fatty acid: exogenous fatty acid 0.2 mM, 1% tergitol NP-40, yeast cultured 2 days (FIG. 2)
T1 sequence (Q99PL7 1-359 V119A): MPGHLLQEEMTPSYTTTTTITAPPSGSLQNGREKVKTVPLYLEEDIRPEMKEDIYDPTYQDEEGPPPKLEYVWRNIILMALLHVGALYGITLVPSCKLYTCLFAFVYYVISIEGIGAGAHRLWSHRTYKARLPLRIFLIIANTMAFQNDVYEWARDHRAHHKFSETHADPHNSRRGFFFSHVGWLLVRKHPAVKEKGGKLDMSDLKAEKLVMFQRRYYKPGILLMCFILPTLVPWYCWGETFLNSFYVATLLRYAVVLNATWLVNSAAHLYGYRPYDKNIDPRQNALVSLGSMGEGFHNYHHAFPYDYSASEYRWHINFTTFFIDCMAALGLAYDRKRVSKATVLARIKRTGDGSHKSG

[2] = target: T1, mSCD3; experiment: Δ9-desaturase activity in microsomes of Hela cells over-expressing mSCD3; assay type: biochemical; parameters: Cloning of the full-length human and mouse SCD cDNAs: The full coding region of human SCDs; expressed in transfected cells; settings: Hela microsomes 100 μg, 14C-acyl-CoA, NADH (FIG. 3)

| SMILES | conversion of exogenous saturated fatty acid to Δ9 monounsaturated fatty acid [1] | further results |
| --- | --- | --- |
| CCCCCCCCCCCCCCCC(=O)O [16:0] |  | % conversion of fatty acid to Δ9 monounsaturated fatty acid ([1]; endogenous fatty acid, L8-14C transformant, YPD lacking unsaturated fatty acids, 3 days): 49% |
| CCCCCCCCCCCCCCCCC(=O)O [17:0, heptadecanoic acid] | undetectable |  |
| CCCCCCCCCCCCCC(=O)O [14:0, myristic acid] | more than 50% |  |
| CCCCCCCCCCCCC(=O)O [13:0, tridecanoic acid] | 32% |  |
| CCCCCCCCCCCCCCCCCCCC(=O)O [C20:0, eicosanoic acid] | None of Δ9-desaturase was able to utilize |  |
| CCCCCCCCCCCCCCCC(=O)SCCNC(=O)CCNC(=O)[C@H](O)C(C)(C)COP(=O)(O)OP(=O)(O)OC[C@H]1O[C@@H](n2cnc3c(N)ncnc32)[C@H](O)[C@@H]1OP(=O)(O)O [16:0-CoA, palmitoyl-CoA] |  | Δ9-desaturase activity towards 16:0-CoA relative to 18:0-CoA [2]: 16 fold |
